Results as given in US12077503B2, “Substituted cyclic amides and their use as herbicides” (FMC CORPORATION, priority 2015, dated 2024).

How the values were obtained:
Format in all cases: in vivo
[1] = test system: barnyardgrass (Echinochloa crus-galli); assay: Test A postemergence; settings: Echinochloa crus-galli, post-emergence, 240 h, read-out: Plant response rating, Barnyardgrass
Method in brief: (§1)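 Preemergence soil spray on seeded pots or post-emergence spray on 1–2 leaf plants, in loam–sand blend. Greenhouse ~10 d. Visual rating 0–100 against untreated plants.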

[2] = test system: blackgrass (Alopecurus myosuroides); assay: Test A postemergence; settings: Alopecurus myosuroides, post-emergence, 240 h, read-out: Plant response rating, Blackgrass
Method in brief: as §1

[3] = test system: corn (Zea mays); assay: Test A postemergence; settings: Zea mays, post-emergence, 240 h
Method in brief: as §1

[4] = test system: giant foxtail (Setaria faberii); assay: Test A postemergence; settings: Setaria faberi, post-emergence, 240 h, read-out: Plant response rating, Foxtail, Giant
Method in brief: as §1

[5] = test system: pigweed (Amaranthus retroflexus); assay: Test A postemergence; settings: Amaranthus retroflexus, post-emergence, 240 h, read-out: Plant response rating, Pigweed
Method in brief: as §1

[6] = test system: barnyardgrass (Echinochloa crus-galli); assay: Test C preemergence; settings: for Plant response rating, Barnyardgrass: scale 0 to 100, 0 no effect, 100 complete control
Method in brief: (§2)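 Scores of 0 to 100 reflect visual comparison with control plants, where 0 means no effect and 100 complete control, made 13 to 15 d after treatment. Application was preemergence to seeds in loam-sand soil or postemergence to plants 2 to 18 cm tall in peat-based mix, using a surfactant-containing solvent formulation.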

[7] = test system: blackgrass (Alopecurus myosuroides); assay: Test C preemergence; settings: for Plant response rating, Blackgrass: scale 0 to 100, 0 no effect, 100 complete control
Method in brief: as §2

[8] = test system: crabgrass, large (large crabgrass, Digitaria sanguinalis); assay: Test C preemergence; settings: for Plant response rating, Crabgrass, Large: scale 0 to 100, 0 no effect, 100 complete control
Method in brief: as §2

[9] = test system: foxtail, giant (giant foxtail, Setaria faberii); assay: Test C preemergence; settings: for Plant response rating, Foxtail, Giant: scale 0 to 100, 0 no effect, 100 complete control
Method in brief: as §2

[10] = test system: lambsquarters (Chenopodium album); assay: Test C preemergence; settings: for Plant response rating, Lambsquarters: scale 0 to 100, 0 no effect, 100 complete control
Method in brief: as §2

[11] = test system: oilseed rape (Brassica napus); assay: Test C preemergence; settings: for Plant response rating, Oilseed Rape: scale 0 to 100, 0 no effect, 100 complete control
Method in brief: as §2

[12] = test system: ryegrass, Italian (Italian ryegrass, Lolium multiflorum); assay: Test C preemergence; settings: for Plant response rating, Ryegrass, Italian: scale 0 to 100, 0 no effect, 100 complete control
Method in brief: as §2

[13] = test system: soybean (Glycine max); assay: Test C preemergence; settings: for Plant response rating, Soybean: scale 0 to 100, 0 no effect, 100 complete control
Method in brief: as §2

[14] = test system: velvetleaf (Abutilon theophrasti); assay: Test C preemergence; settings: for Plant response rating, Velvetleaf: scale 0 to 100, 0 no effect, 100 complete control
Method in brief: as §2

[15] = test system: waterhemp (common waterhemp, Amaranthus rudis); assay: Test C preemergence; settings: for Plant response rating, Waterhemp: scale 0 to 100, 0 no effect, 100 complete control
Method in brief: as §2

[16] = 125 g ai/ha, postemergence, visual rating after approx. 10 d, 0 to 100 scale (0 no effect, 100 complete control)
[17] = Postemergence, 500 g ai/ha, 0 to 100 scale where 0 is no effect and 100 is complete control
[18] = 31 g ai/ha, 0 is no effect, 100 is complete control

CN1C[C@H](c2ccc(F)c(F)c2)[C@@H](C(=O)Nc2ccccc2F)C1=O [Compound 596, (3S,4S)-4-(3,4-difluorophenyl)-N-(2-fluorophenyl)-1-methyl-2-oxo-3-pyrrolidinecarboxamide]
pest or weed control at 125 g/ha [1, 16]: 90%
pest or weed control at 500 g/ha [1, 17]: 90%
pest or weed control at 125 g/ha [2, 16]: 20%
pest or weed control at 500 g/ha [2, 17]: 50%
Corn plant response rating (crop injury, 0 = no effect, 100 = complete kill) at 125 g/ha [3, 16]: 20%
Corn plant response rating (crop injury, 0 = no effect, 100 = complete kill) at 500 g/ha [3, 17]: 60%
pest or weed control at 125 g/ha [4, 16]: 90%
pest or weed control at 500 g/ha [4, 17]: 90%
pest or weed control at 125 g/ha [5, 16]: 0%
pest or weed control at 500 g/ha [5, 17]: 20%
Plant response rating (scale of 0 to 100), Barnyardgrass [6, 18]: 90
Plant response rating, Barnyardgrass ([6]; 62 g ai/ha): 95
Plant response rating, Barnyardgrass ([6]; 125 g ai/ha): 95
Plant response rating, Barnyardgrass ([6]; 250 g ai/ha): 95
Plant response rating (scale of 0 to 100), Blackgrass [7, 18]: 0
Plant response rating, Blackgrass ([7]; 62 g ai/ha): 40
Plant response rating, Blackgrass ([7]; 125 g ai/ha): 70
Plant response rating, Blackgrass ([7]; 250 g ai/ha): 90
Plant response rating (scale of 0 to 100), Crabgrass, Large [8, 18]: 95
Plant response rating, Crabgrass, Large ([8]; 62 g ai/ha): 100
Plant response rating, Crabgrass, Large ([8]; 125 g ai/ha): 100
Plant response rating, Crabgrass, Large ([8]; 250 g ai/ha): 100
Plant response rating (scale of 0 to 100), Foxtail, Giant [9, 18]: 90
Plant response rating, Foxtail, Giant ([9]; 62 g ai/ha): 90
Plant response rating, Foxtail, Giant ([9]; 125 g ai/ha): 95
Plant response rating, Foxtail, Giant ([9]; 250 g ai/ha): 100
Plant response rating (scale of 0 to 100), Lambsquarters [10, 18]: 10
Plant response rating, Lambsquarters ([10]; 62 g ai/ha): 60
Plant response rating, Lambsquarters ([10]; 125 g ai/ha): 70
Plant response rating, Lambsquarters ([10]; 250 g ai/ha): 75
Plant response rating (scale of 0 to 100), Oilseed Rape [11, 18]: 0
Plant response rating, Oilseed Rape ([11]; 62 g ai/ha): 0
Plant response rating, Oilseed Rape ([11]; 125 g ai/ha): 30
Plant response rating, Oilseed Rape ([11]; 250 g ai/ha): 90
Plant response rating (scale of 0 to 100), Ryegrass, Italian [12, 18]: 0
Plant response rating, Ryegrass, Italian ([12]; 62 g ai/ha): 0
Plant response rating, Ryegrass, Italian ([12]; 125 g ai/ha): 30
Plant response rating, Ryegrass, Italian ([12]; 250 g ai/ha): 45
Plant response rating (scale of 0 to 100), Soybean [13, 18]: 0
Plant response rating, Soybean ([13]; 62 g ai/ha): 0
Plant response rating, Soybean ([13]; 125 g ai/ha): 0
Plant response rating, Soybean ([13]; 250 g ai/ha): 100
Plant response rating (scale of 0 to 100), Velvetleaf [14, 18]: 10
Plant response rating, Velvetleaf ([14]; 62 g ai/ha): 20
Plant response rating, Velvetleaf ([14]; 125 g ai/ha): 30
Plant response rating, Velvetleaf ([14]; 250 g ai/ha): 55
Plant response rating (scale of 0 to 100), Waterhemp [15, 18]: 0
Plant response rating, Waterhemp ([15]; 62 g ai/ha): 0
Plant response rating, Waterhemp ([15]; 125 g ai/ha): 25
Plant response rating, Waterhemp ([15]; 250 g ai/ha): 65
